Measurements as given in ChEMBL document CHEMBL3232845 (Bioorg Med Chem Lett, 2014).

Legend:
[1] = target: Protein kinase C eta type (Homo sapiens) (UniProt P24723); assay: Inhibition of human PKCeta assessed as enzyme activity at 1 uM relative to control; design: scale not given: the % may be the effect or the level left
[2] = target: Tyrosine-protein kinase Fer (Homo sapiens) (UniProt P16591); assay: Inhibition of human Fer assessed as enzyme activity at 1 uM relative to control; design: scale not given: the % may be the effect or the level left
[3] = target: Serine/threonine-protein kinase 10 (Homo sapiens) (UniProt O94804); assay: Inhibition of human LOK assessed as enzyme activity at 1 uM relative to control; design: scale not given: the % may be the effect or the level left
[4] = target: Ribosomal protein S6 kinase alpha-5 (Homo sapiens) (UniProt O75582); assay: Inhibition of human MSK1 assessed as enzyme activity at 1 uM relative to control; design: scale not given: the % may be the effect or the level left
[5] = target: Mitogen-activated protein kinase 13 (Homo sapiens) (UniProt O15264); assay: Inhibition of human p38delta assessed as enzyme activity at 1 uM relative to control; design: scale not given: the % may be the effect or the level left
[6] = target: Ephrin type-A receptor 5 (Homo sapiens) (UniProt P54756); assay: Inhibition of human EphA5 assessed as enzyme activity at 1 uM relative to control; design: scale not given: the % may be the effect or the level left
[7] = target: Hepatocyte growth factor receptor (Homo sapiens) (UniProt P08581); assay: Inhibition of human Met assessed as enzyme activity at 1 uM relative to control; design: scale not given: the % may be the effect or the level left
[8] = target: Tyrosine-protein kinase HCK (Homo sapiens) (UniProt P08631); assay: Inhibition of human Hck assessed as enzyme activity at 1 uM relative to control; design: scale not given: the % may be the effect or the level left
[9] = target: Serine/threonine-protein kinase MARK2 (Homo sapiens) (UniProt Q7KZI7); assay: Inhibition of human MARK2 assessed as enzyme activity at 1 uM relative to control; design: scale not given: the % may be the effect or the level left
[10] = target: Serine/threonine-protein kinase pim-1 (Homo sapiens) (UniProt P11309); assay: Inhibition of human Pim-1 assessed as enzyme activity at 1 uM relative to control; design: scale not given: the % may be the effect or the level left
[11] = target: RAC-beta serine/threonine-protein kinase (Homo sapiens) (UniProt P31751); assay: Inhibition of human AKT2 assessed as enzyme activity at 1 uM relative to control; design: scale not given: the % may be the effect or the level left
[12] = target: Phosphorylase b kinase gamma catalytic chain, liver/testis isoform (Homo sapiens) (UniProt P15735); assay: Inhibition of human PhKgamma2 assessed as enzyme activity at 1 uM relative to control; design: scale not given: the % may be the effect or the level left
[13] = target: Serine/threonine-protein kinase SIK1 (Homo sapiens) (UniProt P57059); assay: Inhibition of human SIK assessed as enzyme activity at 1 uM relative to control; design: scale not given: the % may be the effect or the level left
[14] = target: Serine/threonine-protein kinase WNK2 (Homo sapiens) (UniProt Q9Y3S1); assay: Inhibition of human WNK2 assessed as enzyme activity at 1 uM relative to control; design: scale not given: the % may be the effect or the level left
Serine/threonine-protein kinase WNK2 (Homo sapiens), sequence (Q9Y3S1 whole entry): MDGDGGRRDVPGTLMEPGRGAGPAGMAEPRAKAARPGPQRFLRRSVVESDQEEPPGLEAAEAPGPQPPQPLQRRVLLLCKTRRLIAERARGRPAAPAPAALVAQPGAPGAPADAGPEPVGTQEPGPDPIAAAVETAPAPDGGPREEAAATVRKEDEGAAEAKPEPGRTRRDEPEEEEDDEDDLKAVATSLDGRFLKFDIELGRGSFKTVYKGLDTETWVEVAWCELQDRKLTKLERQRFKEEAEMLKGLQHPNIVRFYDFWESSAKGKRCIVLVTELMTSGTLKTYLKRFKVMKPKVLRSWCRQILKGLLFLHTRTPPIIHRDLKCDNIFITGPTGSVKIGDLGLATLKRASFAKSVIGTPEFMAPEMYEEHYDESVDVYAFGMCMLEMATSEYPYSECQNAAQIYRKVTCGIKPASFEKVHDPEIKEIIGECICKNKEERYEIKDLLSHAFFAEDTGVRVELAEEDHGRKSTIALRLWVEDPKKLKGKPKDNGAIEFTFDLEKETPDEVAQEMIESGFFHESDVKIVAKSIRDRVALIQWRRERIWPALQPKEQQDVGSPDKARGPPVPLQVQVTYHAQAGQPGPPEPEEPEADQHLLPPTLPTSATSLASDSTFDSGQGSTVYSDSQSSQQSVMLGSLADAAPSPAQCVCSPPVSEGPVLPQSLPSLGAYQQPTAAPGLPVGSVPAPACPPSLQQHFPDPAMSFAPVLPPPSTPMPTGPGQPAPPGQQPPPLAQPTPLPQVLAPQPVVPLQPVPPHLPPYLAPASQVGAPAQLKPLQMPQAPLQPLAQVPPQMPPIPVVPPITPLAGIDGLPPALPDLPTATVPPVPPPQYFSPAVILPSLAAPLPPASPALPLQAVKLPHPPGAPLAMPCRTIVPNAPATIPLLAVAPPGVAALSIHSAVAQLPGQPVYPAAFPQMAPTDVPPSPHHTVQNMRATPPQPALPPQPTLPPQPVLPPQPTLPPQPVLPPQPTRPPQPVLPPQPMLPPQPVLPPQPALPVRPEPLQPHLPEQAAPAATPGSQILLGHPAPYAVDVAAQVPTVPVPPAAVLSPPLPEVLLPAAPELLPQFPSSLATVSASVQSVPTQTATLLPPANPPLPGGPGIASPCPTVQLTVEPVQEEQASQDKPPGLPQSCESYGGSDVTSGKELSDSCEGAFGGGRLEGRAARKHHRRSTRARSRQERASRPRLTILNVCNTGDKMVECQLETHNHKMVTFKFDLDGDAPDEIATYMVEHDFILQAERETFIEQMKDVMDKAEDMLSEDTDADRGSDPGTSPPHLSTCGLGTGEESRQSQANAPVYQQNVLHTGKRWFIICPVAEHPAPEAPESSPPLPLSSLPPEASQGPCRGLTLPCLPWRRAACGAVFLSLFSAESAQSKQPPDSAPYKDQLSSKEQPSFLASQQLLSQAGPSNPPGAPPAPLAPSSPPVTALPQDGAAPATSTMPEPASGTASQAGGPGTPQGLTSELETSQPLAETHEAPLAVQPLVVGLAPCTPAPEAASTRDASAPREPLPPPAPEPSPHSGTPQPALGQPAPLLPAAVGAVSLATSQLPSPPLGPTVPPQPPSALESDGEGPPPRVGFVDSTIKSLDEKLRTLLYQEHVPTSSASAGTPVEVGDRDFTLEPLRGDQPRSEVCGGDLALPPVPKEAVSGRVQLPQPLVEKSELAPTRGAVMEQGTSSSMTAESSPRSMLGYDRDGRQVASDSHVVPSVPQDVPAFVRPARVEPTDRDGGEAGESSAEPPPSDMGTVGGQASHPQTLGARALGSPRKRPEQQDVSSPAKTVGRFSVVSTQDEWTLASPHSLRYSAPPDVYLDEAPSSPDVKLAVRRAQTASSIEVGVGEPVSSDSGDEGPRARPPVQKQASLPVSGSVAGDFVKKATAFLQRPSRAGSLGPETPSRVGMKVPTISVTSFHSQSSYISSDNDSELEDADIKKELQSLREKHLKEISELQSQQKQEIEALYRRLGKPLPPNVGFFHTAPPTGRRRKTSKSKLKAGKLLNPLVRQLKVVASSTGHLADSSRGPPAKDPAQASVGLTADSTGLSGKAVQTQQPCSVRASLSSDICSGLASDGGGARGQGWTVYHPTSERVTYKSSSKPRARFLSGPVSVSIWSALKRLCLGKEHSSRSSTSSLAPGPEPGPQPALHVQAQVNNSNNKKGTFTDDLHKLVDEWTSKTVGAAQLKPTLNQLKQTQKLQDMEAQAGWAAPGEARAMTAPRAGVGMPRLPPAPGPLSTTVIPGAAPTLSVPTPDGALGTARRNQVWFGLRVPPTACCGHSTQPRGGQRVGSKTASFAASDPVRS

[15] = target: Serine/threonine-protein kinase Nek7 (Homo sapiens) (UniProt Q8TDX7); assay: Inhibition of human NEK7 assessed as enzyme activity at 1 uM relative to control; design: scale not given: the % may be the effect or the level left
[16] = target: MAP kinase-activated protein kinase 3 (Homo sapiens) (UniProt Q16644); assay: Inhibition of human MAPKAP-K3 assessed as enzyme activity at 1 uM relative to control; design: scale not given: the % may be the effect or the level left
[17] = target: Misshapen-like kinase 1 (Homo sapiens) (UniProt Q8N4C8); assay: Inhibition of human MINK assessed as enzyme activity at 1 uM relative to control; design: scale not given: the % may be the effect or the level left
[18] = target: Dual specificity mitogen-activated protein kinase kinase 4 (Mus musculus) (UniProt P47809); assay: Inhibition of mouse MKK4 assessed as enzyme activity at 1 uM relative to control; design: scale not given: the % may be the effect or the level left
[19] = target: mTOR/FKBP12A/FKBP12B (Homo sapiens) (UniProt P62942+P68106+P42345); assay: Inhibition of human mTOR/FKBP12 assessed as enzyme activity at 1 uM relative to control; assay type: protein-complex assay; design: scale not given: the % may be the effect or the level left
mTOR/FKBP12A/FKBP12B (Homo sapiens), sequence (P62942 2-108 limits assumed, other chains not shown): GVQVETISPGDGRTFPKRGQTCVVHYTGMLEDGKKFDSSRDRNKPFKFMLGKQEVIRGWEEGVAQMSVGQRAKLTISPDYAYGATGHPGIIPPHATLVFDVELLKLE
mTOR/FKBP12A/FKBP12B (Homo sapiens), sequence (P68106 whole entry partner, other chains not shown): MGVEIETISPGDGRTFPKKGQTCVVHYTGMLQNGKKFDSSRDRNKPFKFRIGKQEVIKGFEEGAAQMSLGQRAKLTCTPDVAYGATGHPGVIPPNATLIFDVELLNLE

[20] = target: Homeodomain-interacting protein kinase 2 (Homo sapiens) (UniProt Q9H2X6); assay: Inhibition of human HIPK2 assessed as enzyme activity at 1 uM relative to control; design: scale not given: the % may be the effect or the level left
Homeodomain-interacting protein kinase 2 (Homo sapiens), sequence (Q9H2X6 whole entry, looked up): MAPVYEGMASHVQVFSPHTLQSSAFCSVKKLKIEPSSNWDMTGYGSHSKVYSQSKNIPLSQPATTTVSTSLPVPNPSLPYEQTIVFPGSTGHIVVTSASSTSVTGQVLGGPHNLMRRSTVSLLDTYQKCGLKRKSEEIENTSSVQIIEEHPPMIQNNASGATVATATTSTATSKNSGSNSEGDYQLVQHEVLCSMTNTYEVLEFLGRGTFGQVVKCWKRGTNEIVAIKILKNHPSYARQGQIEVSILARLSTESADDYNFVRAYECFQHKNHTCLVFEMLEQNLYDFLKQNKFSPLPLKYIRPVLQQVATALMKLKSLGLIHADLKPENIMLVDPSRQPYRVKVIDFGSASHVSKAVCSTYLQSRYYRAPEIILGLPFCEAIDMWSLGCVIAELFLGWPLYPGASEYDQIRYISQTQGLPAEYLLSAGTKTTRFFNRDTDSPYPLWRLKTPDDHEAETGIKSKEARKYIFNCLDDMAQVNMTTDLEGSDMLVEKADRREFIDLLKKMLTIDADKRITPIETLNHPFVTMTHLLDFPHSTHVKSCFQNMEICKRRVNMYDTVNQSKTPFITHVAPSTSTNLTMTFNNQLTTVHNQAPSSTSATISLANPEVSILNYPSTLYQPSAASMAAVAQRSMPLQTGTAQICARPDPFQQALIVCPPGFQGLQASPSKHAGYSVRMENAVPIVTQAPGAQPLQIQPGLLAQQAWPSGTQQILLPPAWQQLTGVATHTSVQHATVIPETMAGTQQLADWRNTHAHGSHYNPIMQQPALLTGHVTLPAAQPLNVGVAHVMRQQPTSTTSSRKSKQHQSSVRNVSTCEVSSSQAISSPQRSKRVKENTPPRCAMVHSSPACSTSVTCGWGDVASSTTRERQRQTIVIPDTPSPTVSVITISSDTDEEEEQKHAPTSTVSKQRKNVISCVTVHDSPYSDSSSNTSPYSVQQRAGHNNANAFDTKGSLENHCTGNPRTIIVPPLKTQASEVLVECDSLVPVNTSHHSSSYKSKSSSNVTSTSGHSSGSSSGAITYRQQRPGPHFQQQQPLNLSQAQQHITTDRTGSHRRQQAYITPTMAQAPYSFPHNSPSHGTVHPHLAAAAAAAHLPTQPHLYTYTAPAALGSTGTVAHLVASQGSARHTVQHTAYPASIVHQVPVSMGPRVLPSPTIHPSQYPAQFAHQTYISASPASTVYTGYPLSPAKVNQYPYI

[21] = target: Macrophage-stimulating protein receptor (Homo sapiens) (UniProt Q04912); assay: Inhibition of human Ron assessed as enzyme activity at 1 uM relative to control; design: scale not given: the % may be the effect or the level left
[22] = target: Homeodomain-interacting protein kinase 3 (Homo sapiens) (UniProt Q9H422); assay: Inhibition of human HIPK3 assessed as enzyme activity at 1 uM relative to control; design: scale not given: the % may be the effect or the level left
[23] = target: Mitogen-activated protein kinase 1 (Homo sapiens) (UniProt P28482); assay: Inhibition of human ERK2 assessed as enzyme activity at 1 uM relative to control; design: scale not given: the % may be the effect or the level left
[24] = target: Tyrosine-protein kinase ITK/TSK (Homo sapiens) (UniProt Q08881); assay: Inhibition of human ITK assessed as enzyme activity at 1 uM relative to control; design: scale not given: the % may be the effect or the level left
[25] = target: Serine/threonine-protein kinase B-raf (Homo sapiens) (UniProt P15056); assay: Inhibition of B-Raf (unknown origin) at 1 uM
[26] = target: Testis-specific serine/threonine-protein kinase 2 (Homo sapiens) (UniProt Q96PF2); assay: Inhibition of human TSSK2 assessed as enzyme activity at 1 uM relative to control; design: scale not given: the % may be the effect or the level left
Testis-specific serine/threonine-protein kinase 2 (Homo sapiens), sequence (Q96PF2 whole entry): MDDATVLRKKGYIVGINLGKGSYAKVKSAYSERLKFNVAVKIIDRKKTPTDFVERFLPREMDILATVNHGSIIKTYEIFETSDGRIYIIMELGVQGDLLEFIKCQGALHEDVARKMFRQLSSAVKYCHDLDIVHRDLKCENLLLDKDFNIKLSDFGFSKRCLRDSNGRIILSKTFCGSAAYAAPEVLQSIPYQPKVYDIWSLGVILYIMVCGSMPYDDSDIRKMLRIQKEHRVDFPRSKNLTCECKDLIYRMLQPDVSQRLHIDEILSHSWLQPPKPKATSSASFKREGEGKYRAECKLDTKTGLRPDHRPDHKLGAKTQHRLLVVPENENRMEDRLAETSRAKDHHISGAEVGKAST

[27] = target: Serine/threonine-protein kinase pim-2 (Homo sapiens) (UniProt Q9P1W9); assay: Inhibition of human Pim-2 assessed as enzyme activity at 1 uM relative to control; design: scale not given: the % may be the effect or the level left
[28] = target: Platelet-derived growth factor receptor beta (Homo sapiens) (UniProt P09619); assay: Inhibition of human PDGFRbeta assessed as enzyme activity at 1 uM relative to control; design: scale not given: the % may be the effect or the level left
Saccharomyces cerevisiae = assay: Inhibition of yeast CK1 assessed as enzyme activity at 1 uM relative to control; design: scale not given: the % may be the effect or the level left
[29] = target: Insulin receptor-related protein (Homo sapiens) (UniProt P14616); assay: Inhibition of human IRR assessed as enzyme activity at 1 uM relative to control; design: scale not given: the % may be the effect or the level left
[30] = target: MAP kinase-activated protein kinase 5 (Homo sapiens) (UniProt Q8IW41); assay: Inhibition of human MAPKAP-K5 assessed as enzyme activity at 1 uM relative to control; design: scale not given: the % may be the effect or the level left
[31] = target: Serine/threonine-protein kinase MRCK alpha (Homo sapiens) (UniProt Q5VT25); assay: Inhibition of human MRCKalpha assessed as enzyme activity at 1 uM relative to control; design: scale not given: the % may be the effect or the level left
[32] = target: Proto-oncogene tyrosine-protein kinase Src (Homo sapiens) (UniProt P12931); assay: Inhibition of human Src assessed as enzyme activity at 1 uM relative to control; design: scale not given: the % may be the effect or the level left
[33] = target: MAP kinase-interacting serine/threonine-protein kinase 2 (Homo sapiens) (UniProt Q9HBH9); assay: Inhibition of human MKNK2 assessed as enzyme activity at 1 uM relative to control; design: scale not given: the % may be the effect or the level left
[34] = target: Calcium/calmodulin-dependent protein kinase type II subunit delta (Homo sapiens) (UniProt Q13557); assay: Inhibition of human CAMK2d assessed as enzyme activity at 1 uM relative to control; design: scale not given: the % may be the effect or the level left
[35] = target: Tyrosine-protein kinase Mer (Homo sapiens) (UniProt Q12866); assay: Inhibition of human Mer assessed as enzyme activity at 1 uM relative to control; design: scale not given: the % may be the effect or the level left
Tyrosine-protein kinase Mer (Homo sapiens), sequence (Q12866 whole entry): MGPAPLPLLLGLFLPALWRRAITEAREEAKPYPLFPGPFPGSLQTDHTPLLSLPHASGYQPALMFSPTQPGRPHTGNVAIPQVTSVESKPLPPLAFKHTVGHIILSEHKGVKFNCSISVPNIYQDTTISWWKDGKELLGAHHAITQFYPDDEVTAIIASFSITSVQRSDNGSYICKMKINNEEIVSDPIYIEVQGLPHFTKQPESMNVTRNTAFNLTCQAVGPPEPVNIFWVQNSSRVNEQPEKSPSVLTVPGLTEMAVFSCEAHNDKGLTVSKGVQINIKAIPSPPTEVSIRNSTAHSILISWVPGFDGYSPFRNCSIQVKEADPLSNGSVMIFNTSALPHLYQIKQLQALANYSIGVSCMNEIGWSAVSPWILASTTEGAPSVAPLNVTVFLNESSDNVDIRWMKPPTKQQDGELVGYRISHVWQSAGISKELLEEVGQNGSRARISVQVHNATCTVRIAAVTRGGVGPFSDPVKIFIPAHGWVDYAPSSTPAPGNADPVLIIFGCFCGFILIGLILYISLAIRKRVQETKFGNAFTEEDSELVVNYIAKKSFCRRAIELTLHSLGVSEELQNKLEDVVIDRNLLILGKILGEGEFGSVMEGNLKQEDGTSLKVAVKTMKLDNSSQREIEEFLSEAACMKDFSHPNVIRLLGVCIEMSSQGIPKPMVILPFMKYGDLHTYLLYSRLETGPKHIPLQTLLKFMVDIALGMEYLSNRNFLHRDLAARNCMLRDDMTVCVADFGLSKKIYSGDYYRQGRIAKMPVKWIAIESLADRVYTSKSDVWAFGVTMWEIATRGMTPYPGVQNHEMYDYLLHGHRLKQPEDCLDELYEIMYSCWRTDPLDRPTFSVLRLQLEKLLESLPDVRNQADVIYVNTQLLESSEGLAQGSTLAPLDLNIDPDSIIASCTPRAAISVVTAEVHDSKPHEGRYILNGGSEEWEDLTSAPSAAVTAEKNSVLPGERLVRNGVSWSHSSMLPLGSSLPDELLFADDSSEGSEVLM

[36] = target: Fibroblast growth factor receptor 4 (Homo sapiens) (UniProt P22455); assay: Inhibition of human FGFR4 assessed as enzyme activity at 1 uM relative to control; design: scale not given: the % may be the effect or the level left
[37] = target: Serine/threonine-protein kinase DCLK2 (Homo sapiens) (UniProt Q8N568); assay: Inhibition of human DCAMKL2 assessed as enzyme activity at 1 uM relative to control; design: scale not given: the % may be the effect or the level left

CCCS(=O)(=O)Nc1cccc(Nc2ccc3ncn(C)c(=O)c3c2)c1C#N
Activity [1]: 101%
Activity [2]: 114%
Activity [3]: 40.5%
Activity [4]: 132%
Activity [5]: 96%
Activity [6]: 103%
Activity [7]: 104%
Activity [8]: 94.5%
Activity [9]: 100%
Activity [10]: 147%
Activity [11]: 154%
Activity [12]: 112%
Activity [13]: 143%
Activity [14]: 100%
Activity [15]: 110%
Activity [16]: 121%
Activity [17]: 106%
Activity [18]: 128%
Activity [19]: 104%
Activity [20]: 100%
Activity [21]: 110%
Activity [22]: 106%
Activity [23]: 97%
Activity [24]: 102%
inhibition [25]: < 60%
Activity [26]: 118%
Activity [27]: 108%
Activity [28]: 114%
Activity (Saccharomyces cerevisiae): 95.5%
Activity [29]: 101%
Activity [30]: 104%
Activity [31]: 127%
Activity [32]: 83.5%
Activity [33]: 106%
Activity [34]: 94.5%
Activity [35]: 89.5%
Activity [36]: 134%
Activity [37]: 148%
